Assay results taken from DBAASP.
In brackets after ≈: the same amount, converted by molar mass.

Experiments:
Assay in all cases: ≥ marks a high value that may be exact or a test limit, other limits are often not marked, values filed in µg/mL are converted to µM
Escherichia coli = system: Escherichia coli
Bacillus cereus = system: Bacillus cereus
[1] = system: Escherichia coli ATCC 25922
Klebsiella pneumoniae = system: Klebsiella pneumoniae
[2] = system: Salmonella enterica subsp. enterica serovar Typhimurium ATCC 14028
[3] = system: Staphylococcus epidermidis
[4] = system: Enterococcus faecalis ATCC 29212
[5] = system: Candida albicans ATCC 10231
[6] = system: Klebsiella pneumoniae ATCC 13883
Staphylococcus aureus = system: Staphylococcus aureus
[7] = system: Staphylococcus aureus ATCC 25923
[8] = system: Staphylococcus aureus ATCC 43300
Pseudomonas aeruginosa = system: Pseudomonas aeruginosa
[9] = system: Bacillus subtilis ATCC 23857
[10] = system: Acinetobacter baumannii ATCC 19606
[11] = system: Staphylococcus epidermidis ATCC 12228
[12] = system: Klebsiella pneumoniae ATCC 700603
[13] = system: Pseudomonas aeruginosa ATCC 27853
Bacillus subtilis = system: Bacillus subtilis
Salmonella typhimurium = system: Salmonella typhimurium
[14] = system: Escherichia coli DH5alpha
[15] = system: Staphylococcus aureus NCTC 8325
[16] = system: Candida albicans ATCC 90028
[17] = system: Bacillus subtilis ATCC 6633

| Compound | MIC (Escherichia coli) | MIC [1] | MIC [4] | MIC [7] | MIC [11] | MIC [12] | MIC [13] | other results |
| --- | --- | --- | --- | --- | --- | --- | --- | --- |
| CC[C@H](C)[C@H](NC(=O)[C@H](Cc1ccc(O)cc1)NC(=O)[C@@H](NC(=O)[C@@H]1CCCN1C(=O)[C@H](CCCN=C(N)N)NC(=O)[C@H](CC(N)=O)NC(=O)[C@H](CC(N)=O)NC(=O)CN)C(C)C)C(=O)N1CCC[C@H]1C(=O)N[C@@H](CCC(N)=O)C(=O)N1CCC[C@H]1C(=O)N[C@@H](CCCN=C(N)N)C(=O)N1CCC[C@H]1C(=O)N[C@@H](Cc1cnc[nH]1)C(=O)N1CCC[C@H]1C(=O)N[C@@H](CCCN=C(N)N)C(=O)N[C@@H](CC(C)C)C(=O)O [GNNRPVYIPQPRPHPRL] | – | 128 µM (≈ 257 µg/mL) | – | – | – | – | – | MIC (Klebsiella pneumoniae): > 128 µM; MIC [2]: > 128 µM |
| CC(C)[C@H](NC(=O)CNC(=O)[C@@H](N)Cc1cnc[nH]1)C(=O)N[C@@H](CO)C(=O)NCC(=O)N[C@@H](Cc1cnc[nH]1)C(=O)NCC(=O)N[C@@H](CCC(N)=O)C(=O)N[C@@H](Cc1cnc[nH]1)C(=O)NCC(=O)N[C@H](C(=O)N[C@@H](Cc1cnc[nH]1)C(=O)NCC(=O)O)C(C)C [HGVSGHGQHGVHG] | 12.6 µM (≈ 16 µg/mL) | – | > 101 µM | 12.6 µM (≈ 16 µg/mL) | – | – | – | MIC [3]: 25.3 µM (≈ 32 µg/mL); MIC [5]: > 101 µM; MIC [6]: 12.6 µM (≈ 16 µg/mL); MIC (Staphylococcus aureus): 50.6 µM (≈ 64 µg/mL); MIC [8]: > 101 µM; MIC (Pseudomonas aeruginosa): 25.3 µM (≈ 32 µg/mL); MIC (Klebsiella pneumoniae): 12.6 µM (≈ 16 µg/mL) |
| CC[C@H](C)[C@H](NC(=O)[C@H](CCCN=C(N)N)NC(=O)[C@H](CCCCN)NC(=O)[C@H](Cc1ccccc1)NC(=O)[C@H](Cc1c[nH]c2ccccc12)NC(=O)CN)C(=O)N[C@@H](CCCCN)C(=O)N[C@H](C(=O)N[C@@H](Cc1ccccc1)C(=O)N[C@@H](Cc1c[nH]c2ccccc12)C(N)=O)[C@@H](C)O [GWFKRIKTFW] | – | 16 µM (≈ 21.9 µg/mL) | 64 µM (≈ 87.5 µg/mL) | 16 µM (≈ 21.9 µg/mL) | 4 µM (≈ 5.47 µg/mL) | 32 µM (≈ 43.8 µg/mL) | 8 µM (≈ 10.9 µg/mL) | MIC [9]: 4 µM (≈ 5.47 µg/mL); MIC [10]: 64 µM (≈ 87.5 µg/mL) |
| C[C@H](NC(=O)[C@H](C)NC(=O)[C@@H](NC(=O)[C@H](CCCCN)NC(=O)[C@H](C)NC(=O)[C@H](CCCN=C(N)N)NC(=O)[C@H](CCCCN)NC(=O)[C@H](C)NC(=O)[C@H](C)NC(=O)CN)[C@@H](C)O)C(N)=O [GAAKRAKTAA] | – | > 512 µM | > 512 µM | > 512 µM | > 512 µM | > 512 µM | > 512 µM | MIC [9]: ≥ 512 µM; MIC [10]: > 512 µM |
| CC(C)[C@H](NC(=O)CNC(=O)[C@H](CCCN=C(N)N)NC(=O)[C@@H](NC(=O)[C@@H](NC(=O)[C@@H](NC(=O)[C@H](CCCN=C(N)N)NC(=O)CNC(=O)[C@@H](NC(=O)[C@H](CCCN=C(N)N)NC(=O)[C@@H](NC(=O)[C@@H](NC(=O)[C@@H](NC(=O)CN)C(C)C)C(C)C)C(C)C)C(C)C)C(C)C)C(C)C)C(C)C)C(=O)N[C@@H](CCCN=C(N)N)C(=O)N[C@@H](CCCN=C(N)N)C(N)=O [GVVVRVGRVVVRGVRR] | 8 µM (≈ 14.1 µg/mL) | – | – | – | – | – | – | MIC (Bacillus subtilis): 8 µM (≈ 14.1 µg/mL); MIC (Staphylococcus aureus): 16 µM (≈ 28.2 µg/mL); MIC (Salmonella typhimurium): 8 µM (≈ 14.1 µg/mL) |
| CC[C@H](C)[C@H](NC(=O)[C@H](Cc1ccccc1)NC(=O)[C@@H](NC(=O)[C@H](CC(C)C)NC(=O)[C@H](CCCN=C(N)N)NC(=O)[C@H](CCCCN)NC(=O)[C@H](CCCN=C(N)N)NC(=O)[C@H](CCCCN)NC(=O)[C@H](CC(C)C)NC(=O)[C@H](CC(C)C)NC(=O)[C@@H](NC(=O)[C@@H](N)Cc1ccc(O)cc1)C(C)C)[C@@H](C)CC)C(=O)O [YVLLKRKRLIFI] | – | – | – | > 200 µM | – | – | > 200 µM | MIC (Bacillus subtilis): ≥ 200 µM; MIC [14]: ≥ 50 µM |
| CC(=O)N[C@@H](Cc1ccccc1)C(=O)N[C@@H](CCCCN)C(=O)N[C@@H](CCCCN)C(=O)N[C@@H](CC(C)C)C(=O)N[C@@H](CCCCN)C(=O)N[C@@H](CCCCN)C(=O)N[C@@H](CC(C)C)C(=O)N[C@@H](Cc1ccccc1)C(=O)N[C@@H](CO)C(=O)N[C@@H](CCCCN)C(=O)N[C@@H](CC(C)C)C(=O)N[C@@H](CCCCN)C(=O)N[C@@H](CC(N)=O)C(=O)N[C@@H](Cc1c[nH]c2ccccc12)C(=O)N[C@@H](Cc1c[nH]c2ccccc12)C(N)=O [FKKLKKLFSKLKNWW] | – | 1.6 µM (≈ 3.26 µg/mL) | – | 3.2 µM (≈ 6.51 µg/mL) | 1.6 µM (≈ 3.26 µg/mL) | 3.2 µM (≈ 6.51 µg/mL) | 3.2 µM (≈ 6.51 µg/mL) | MIC [17]: 1.6 µM (≈ 3.26 µg/mL) |
| NCCCC[C@H](NC(=O)[C@H](CCCCN)NC(=O)[C@H](Cc1c[nH]c2ccccc12)NC(=O)[C@H](CCCN=C(N)N)NC(=O)[C@H](CCCCN)NC(=O)[C@H](Cc1c[nH]c2ccccc12)NC(=O)[C@H](Cc1c[nH]c2ccccc12)NC(=O)[C@@H](N)CCCCN)C(=O)N[C@@H](Cc1c[nH]c2ccccc12)C(=O)N[C@@H](Cc1c[nH]c2ccccc12)C(N)=O [KWWKRWKKWW] | – | 16 µM (≈ 25.9 µg/mL) | 16 µM (≈ 25.9 µg/mL) | 8 µM (≈ 12.9 µg/mL) | 8 µM (≈ 12.9 µg/mL) | 16 µM (≈ 25.9 µg/mL) | 8 µM (≈ 12.9 µg/mL) | MIC [9]: 4 µM (≈ 6.47 µg/mL); MIC [10]: 8 µM (≈ 12.9 µg/mL) |

More lines, main results first:

| MIC (Escherichia coli) | MIC [1] | MIC [4] | MIC [7] | MIC [11] | MIC [12] | MIC [13] | Compound | other results |
| --- | --- | --- | --- | --- | --- | --- | --- | --- |
| > 116 µM | – | – | – | – | – | – | CC[C@H](C)[C@H](NC(=O)[C@H](Cc1ccc(O)cc1)NC(=O)[C@@H](NC(=O)[C@@H](NC(=O)[C@H](C)NC(=O)[C@@H]1CCCN1C(=O)[C@@H](NC(=O)[C@H](CO)NC(=O)[C@H](CS)NC(=O)[C@H](CCCCN)NC(=O)[C@@H](NC(=O)[C@H](CCCCN)NC(=O)[C@@H](N)C(C)C)[C@@H](C)O)C(C)C)C(C)C)C(C)C)C(=O)N[C@@H](CC(C)C)C(=O)N[C@H](C(=O)N[C@@H](CCCCN)C(=O)N[C@H](C(=O)N[C@@H](Cc1ccccc1)C(=O)N[C@@H](CCCCN)C(=O)N[C@@H](CO)C(=O)O)[C@@H](C)O)C(C)C [VKTKCSVPAVVYILVKTFKS] | MIC (Bacillus cereus): ≥ 116 µM |
| > 120 µM | – | – | – | – | – | – | CC[C@H](C)[C@H](NC(=O)CNC(=O)[C@H](CCCN=C(N)N)NC(=O)[C@H](C)NC(=O)[C@H](CCSC)NC(=O)[C@@H]1CCCN1C(=O)[C@H](C)NC(=O)CNC(=O)[C@H](CCC(=O)O)NC(=O)[C@H](CC(C)C)NC(=O)[C@@H]1CCCN1C(=O)[C@H](CC(=O)O)NC(=O)[C@H](Cc1ccccc1)NC(=O)[C@@H](N)CCCCN)C(=O)N[C@H](C(=O)N[C@@H](CC(C)C)C(=O)N[C@@H](CCC(=O)O)C(=O)N[C@@H](CCCCN)C(=O)N[C@H](C(=O)NCC(=O)O)C(C)C)C(C)C [KFDPLEGAPMARGIVLEKVG] | MIC (Bacillus cereus): ≥ 120 µM |
| > 124 µM | – | – | – | – | – | – | CC[C@H](C)[C@H](NC(=O)[C@@H](NC(=O)[C@H](C)NC(=O)[C@@H]1CCCN1C(=O)[C@H](Cc1ccccc1)NC(=O)[C@@H](NC(=O)[C@H](CCCCN)NC(=O)[C@H](CO)NC(=O)[C@H](C)NC(=O)[C@@H](NC(=O)[C@H](CCCN=C(N)N)NC(=O)CNC(=O)[C@@H](NC(=O)[C@@H](NC(=O)[C@@H]1CCCN1)C(C)C)C(C)C)C(C)C)C(C)C)C(C)C)C(=O)NCC(=O)N[C@@H](CC(C)C)C(=O)N[C@H](C(=O)N[C@@H](CCCCN)C(=O)N[C@@H](CCCCN)C(=O)O)C(C)C [PVVGRVASKVFPAVIGLVKK] | MIC (Bacillus cereus): ≥ 124 µM |
| – | 25 µM (≈ 57.1 µg/mL) | – | – | – | – | – | CC[C@H](C)[C@H](NC(=O)[C@H](CC(C)C)NC(=O)[C@H](CC(=O)O)NC(=O)[C@H](CO)NC(=O)[C@@H](NC(=O)[C@H](C)NC(=O)[C@H](CCCCN)NC(=O)[C@@H](NC(=O)[C@H](C)NC(=O)[C@H](Cc1cnc[nH]1)NC(=O)[C@@H]1CCCN1C(=O)[C@@H](NC(=O)[C@H](CC(C)C)NC(=O)[C@@H]1CCCN1C(=O)CNC(=O)[C@@H](NC(=O)[C@H](Cc1ccc(O)cc1)NC(=O)[C@H](CCCCN)NC(=O)[C@H](CCSC)NC(=O)[C@H](Cc1ccccc1)NC(=O)CN)[C@@H](C)CC)[C@@H](C)CC)C(C)C)[C@@H](C)CC)C(=O)O [GFMKYIGPLIPHAVKAISDLI] | MIC [15]: ≥ 100 µM; MIC [16]: ≥ 200 µM |
